Data reported in ChEMBL document CHEMBL1201862, “PubChem BioAssay data set” (2004).
Active and inactive are the calls of the source.

Legend:
Estrogen receptor beta [1] = biological target: T1, Estrogen receptor beta (Homo sapiens, UniProt Q92731); assay: blockers of SRC-3 recruitment to ERβ – biochemical, ELISA, streptavidin-HRP readout, orthogonal assay, confirmation (AID 1060)
Estrogen receptor beta [2] = biological target: T1, Estrogen receptor beta
[3] = biological target: T2, Corticotropin-releasing factor receptor 2/Corticotropin-releasing factor-binding protein (Homo sapiens, UniProt P24387+Q13324); assay: activators of CRF receptor 2 with binding protein – uHTS hits, confirmation (AID 602473); type: functional; conditions: read-out: EC50_Mean
T2 sequence (Q13324 whole entry): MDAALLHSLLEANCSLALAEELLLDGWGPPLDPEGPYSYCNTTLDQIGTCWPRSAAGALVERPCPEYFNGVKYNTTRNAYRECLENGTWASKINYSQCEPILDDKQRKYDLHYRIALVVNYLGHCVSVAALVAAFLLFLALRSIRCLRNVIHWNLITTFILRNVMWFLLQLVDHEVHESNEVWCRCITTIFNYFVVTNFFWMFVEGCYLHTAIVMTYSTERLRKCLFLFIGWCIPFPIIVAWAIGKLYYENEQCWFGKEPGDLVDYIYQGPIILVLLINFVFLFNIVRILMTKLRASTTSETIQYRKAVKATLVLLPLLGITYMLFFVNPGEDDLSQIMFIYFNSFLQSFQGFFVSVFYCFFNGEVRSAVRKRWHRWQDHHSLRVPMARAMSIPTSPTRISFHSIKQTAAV
T2 sequence (P24387 whole entry): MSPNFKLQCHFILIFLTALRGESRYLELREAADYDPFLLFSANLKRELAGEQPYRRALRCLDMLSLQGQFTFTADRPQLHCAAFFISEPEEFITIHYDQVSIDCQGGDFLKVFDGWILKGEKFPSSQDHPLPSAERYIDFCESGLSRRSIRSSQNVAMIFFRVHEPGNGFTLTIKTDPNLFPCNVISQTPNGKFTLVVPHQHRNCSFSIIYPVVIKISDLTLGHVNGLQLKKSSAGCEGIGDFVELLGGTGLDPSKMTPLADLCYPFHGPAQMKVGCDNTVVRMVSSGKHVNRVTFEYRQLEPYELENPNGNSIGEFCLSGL

Ion channel NompC = Ion channel NompC (Danio rerio, UniProt Q7T1G6); assay: Fluorescence counterscreen assay for TRPML3 agonists: dose response cell-based high-throughput screening assay to identify agonists of the transient receptor potential channel N1 (TRPN1). [Related pubchem assays: 1526, 1424, 1448 ]; type: functional
Mucolipin-3 = Mucolipin-3 (Homo sapiens, UniProt Q8TDD5); assay: Dose response cell-based high-throughput screening assay for agonists of the transient receptor potential channel ML3 (TRPML3). [Related pubchem assays: 1526, 1424, 1448 ]; type: functional
[4] = luciferase reporter signal suppression in cells – H4 neuroglioma cells, luminescence, dose response (AID 1990); type: functional, cell-based
[5] = Luminescence Cell-Based Dose Response HTS to Identify Inhibitors of 5'UTR Stem-Loop Driven Prion Protein mRNA Translation in H4 Neuroglioblastoma Cells. [Related pubchem assays: 1827 (Project Summary), 1813 (Primary HTS)]; type: functional
[6] = alpha-synuclein stem-loop luciferase translation blockers – H4 neuroglioma cells, luminescence, confirmation (AID 1988); type: functional, cell-based
HT-1080 = assay: HT1080 cell viability loss – fluorescence readout (AID 620); type: functional, cell-based; conditions: Homo sapiens
[7] = biological target: Luciferin 4-monooxygenase (Photinus pyralis, UniProt P08659); assay: Counter Screen for Luciferase-based Assay Positives. [Related pubchem assays: 620, 618, 411 ]
[8] = viability loss of HPDE-C7K cells – cell-based, fluorescence, HTS, primary screen (AID 431); type: functional; conditions: Homo sapiens
[9] = viability of PTEN-deleted HCT116 cells – cell-based, HCT116 PTEN knockout, dose response (AID 1047); type: functional;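 note: HCT116 colon tumor cells with PTEN knocked out; cells exposed to compound for 60 hours before readout; potency for loss of cell viability measured by luminescence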
[10] = HPDE-C7 pancreatic duct cell viability loss – fluorescence, HTS (AID 430); type: functional, cell-based; conditions: Homo sapiens
[11] = biological target: T3, Apoptotic protease-activating factor 1 (Homo sapiens, UniProt O14727); type: functional
T3 sequence (O14727 whole entry): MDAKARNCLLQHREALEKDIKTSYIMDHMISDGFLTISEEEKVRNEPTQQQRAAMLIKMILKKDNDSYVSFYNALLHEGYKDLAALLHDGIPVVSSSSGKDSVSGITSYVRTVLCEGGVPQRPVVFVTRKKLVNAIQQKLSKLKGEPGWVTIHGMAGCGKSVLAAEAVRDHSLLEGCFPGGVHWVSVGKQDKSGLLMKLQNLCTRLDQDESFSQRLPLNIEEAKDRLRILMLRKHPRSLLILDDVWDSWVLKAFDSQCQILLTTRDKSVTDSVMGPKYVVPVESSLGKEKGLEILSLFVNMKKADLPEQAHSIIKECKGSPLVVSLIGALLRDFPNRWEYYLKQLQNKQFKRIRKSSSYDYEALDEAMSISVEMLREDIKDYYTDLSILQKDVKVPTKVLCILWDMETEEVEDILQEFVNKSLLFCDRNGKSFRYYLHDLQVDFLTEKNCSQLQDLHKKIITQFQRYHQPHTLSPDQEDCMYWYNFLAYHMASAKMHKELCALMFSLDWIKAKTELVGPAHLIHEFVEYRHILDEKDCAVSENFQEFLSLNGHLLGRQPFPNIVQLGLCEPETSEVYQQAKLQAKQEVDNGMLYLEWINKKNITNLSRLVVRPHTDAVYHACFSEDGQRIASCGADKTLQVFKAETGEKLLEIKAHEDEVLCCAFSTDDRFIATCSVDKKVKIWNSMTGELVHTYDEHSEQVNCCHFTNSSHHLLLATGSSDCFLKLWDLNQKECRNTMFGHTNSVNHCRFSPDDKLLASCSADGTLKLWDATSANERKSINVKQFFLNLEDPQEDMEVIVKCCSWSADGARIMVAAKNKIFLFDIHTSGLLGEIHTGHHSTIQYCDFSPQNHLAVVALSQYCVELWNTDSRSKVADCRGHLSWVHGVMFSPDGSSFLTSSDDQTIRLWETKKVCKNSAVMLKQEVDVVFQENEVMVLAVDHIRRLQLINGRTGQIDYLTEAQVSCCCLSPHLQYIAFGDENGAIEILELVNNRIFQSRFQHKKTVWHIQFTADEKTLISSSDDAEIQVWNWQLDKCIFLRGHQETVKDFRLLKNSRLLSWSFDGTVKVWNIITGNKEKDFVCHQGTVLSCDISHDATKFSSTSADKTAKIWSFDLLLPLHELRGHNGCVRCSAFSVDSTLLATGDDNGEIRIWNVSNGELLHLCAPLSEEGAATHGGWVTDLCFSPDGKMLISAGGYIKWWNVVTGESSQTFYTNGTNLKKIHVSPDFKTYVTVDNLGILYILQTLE

[12] = viability of HCT116 lacking mutant beta-catenin – cell-based, human colon tumor, dose response (AID 1045); type: functional;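 note: HCT116 colon tumor cells with beta catenin knocked out; cells exposed to compound for 60 hours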
[13] = biological target: T4, Replicative DNA helicase DnaB (Mycobacterium tuberculosis, UniProt P9WMR3); assay: DnaB intein splicing inhibitors, dose response, biochemical, cell-free fluorescence (AID 449749); type: functional
T4 sequence (P9WMR3 whole entry): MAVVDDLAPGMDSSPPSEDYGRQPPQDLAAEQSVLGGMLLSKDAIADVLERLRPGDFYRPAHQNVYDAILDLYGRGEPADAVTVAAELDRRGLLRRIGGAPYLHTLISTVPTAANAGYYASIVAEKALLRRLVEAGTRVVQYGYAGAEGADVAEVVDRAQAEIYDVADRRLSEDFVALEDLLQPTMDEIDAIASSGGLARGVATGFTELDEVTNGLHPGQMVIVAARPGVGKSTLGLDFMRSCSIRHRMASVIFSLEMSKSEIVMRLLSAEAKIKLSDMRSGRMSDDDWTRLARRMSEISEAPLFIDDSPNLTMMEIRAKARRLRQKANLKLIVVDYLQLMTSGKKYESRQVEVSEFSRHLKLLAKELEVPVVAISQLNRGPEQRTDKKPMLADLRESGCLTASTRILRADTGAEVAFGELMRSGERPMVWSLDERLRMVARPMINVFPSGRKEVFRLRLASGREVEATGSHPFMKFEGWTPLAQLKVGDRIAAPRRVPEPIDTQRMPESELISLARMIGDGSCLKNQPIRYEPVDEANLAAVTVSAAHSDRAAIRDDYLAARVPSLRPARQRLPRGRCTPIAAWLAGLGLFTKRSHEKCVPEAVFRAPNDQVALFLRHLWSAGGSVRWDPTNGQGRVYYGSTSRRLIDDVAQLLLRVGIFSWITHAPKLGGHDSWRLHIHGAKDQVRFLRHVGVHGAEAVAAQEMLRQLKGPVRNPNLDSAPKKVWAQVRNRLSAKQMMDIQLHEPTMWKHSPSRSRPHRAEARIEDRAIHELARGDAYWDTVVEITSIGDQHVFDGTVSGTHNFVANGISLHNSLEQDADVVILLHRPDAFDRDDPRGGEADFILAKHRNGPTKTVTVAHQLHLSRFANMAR

Protein RecA = biological target: T5, Protein RecA (Mycobacterium tuberculosis, UniProt P9WHJ3); assay: Fluorescence Cell-Free Homogeneous Dose Retest to Identify Inhibitors of RecA-Intein Splicing Activity. [Related pubchem assays (depositor defined):AID2097, AID2223, AID489010, AID492950]; type: functional
T5 sequence (P9WHJ3 whole entry): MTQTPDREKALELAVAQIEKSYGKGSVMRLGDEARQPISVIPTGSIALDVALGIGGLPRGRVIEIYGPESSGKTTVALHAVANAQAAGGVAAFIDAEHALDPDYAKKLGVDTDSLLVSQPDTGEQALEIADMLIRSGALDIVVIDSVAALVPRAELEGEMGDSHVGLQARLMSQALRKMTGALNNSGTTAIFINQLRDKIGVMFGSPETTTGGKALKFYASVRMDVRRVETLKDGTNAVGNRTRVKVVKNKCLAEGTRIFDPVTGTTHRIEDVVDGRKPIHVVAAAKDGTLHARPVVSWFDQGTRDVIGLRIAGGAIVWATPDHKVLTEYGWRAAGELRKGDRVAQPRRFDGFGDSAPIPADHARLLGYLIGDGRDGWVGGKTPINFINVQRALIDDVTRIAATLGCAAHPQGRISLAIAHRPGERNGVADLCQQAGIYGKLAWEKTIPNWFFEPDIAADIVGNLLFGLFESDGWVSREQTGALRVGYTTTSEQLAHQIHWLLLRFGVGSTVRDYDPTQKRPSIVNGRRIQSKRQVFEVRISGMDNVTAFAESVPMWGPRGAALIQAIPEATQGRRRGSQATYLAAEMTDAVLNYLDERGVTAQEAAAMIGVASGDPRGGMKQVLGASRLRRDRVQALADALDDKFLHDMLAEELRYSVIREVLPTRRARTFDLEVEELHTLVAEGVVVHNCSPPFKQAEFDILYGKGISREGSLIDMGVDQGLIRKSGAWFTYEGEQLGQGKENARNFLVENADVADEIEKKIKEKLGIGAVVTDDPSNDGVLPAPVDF

Estrogen receptor = Estrogen receptor (Homo sapiens, UniProt P03372);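 note: potency for inhibiting coactivator peptide recruitment to the receptor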
[14] = biological target: Protein-tyrosine kinase 2-beta (Homo sapiens, UniProt Q14289);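 note: potency of inhibitors of PYK2 kinase phosphorylation of poly-GT substrate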
Beta-lactamase [15] = biological target: Beta-lactamase (Salmonella choleraesuis (strain SC-B67), UniProt Q5J463)
Beta-lactamase [16] = biological target: Beta-lactamase (Pseudomonas aeruginosa, UniProt Q79MP6);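 note: biochemical dose-response test of metallo-beta-lactamase enzyme inhibition, read out by epi-absorbance; purified recombinant IMP-1 metallo-beta-lactamase with nitrocefin as substrate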
[17] = biological target: Voltage-dependent T-type calcium channel subunit alpha-1H (Homo sapiens, UniProt O95180); type: functional;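 note: channel activity triggered by adding a high calcium stimulation buffer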

T1 sequence (Q92731 whole entry): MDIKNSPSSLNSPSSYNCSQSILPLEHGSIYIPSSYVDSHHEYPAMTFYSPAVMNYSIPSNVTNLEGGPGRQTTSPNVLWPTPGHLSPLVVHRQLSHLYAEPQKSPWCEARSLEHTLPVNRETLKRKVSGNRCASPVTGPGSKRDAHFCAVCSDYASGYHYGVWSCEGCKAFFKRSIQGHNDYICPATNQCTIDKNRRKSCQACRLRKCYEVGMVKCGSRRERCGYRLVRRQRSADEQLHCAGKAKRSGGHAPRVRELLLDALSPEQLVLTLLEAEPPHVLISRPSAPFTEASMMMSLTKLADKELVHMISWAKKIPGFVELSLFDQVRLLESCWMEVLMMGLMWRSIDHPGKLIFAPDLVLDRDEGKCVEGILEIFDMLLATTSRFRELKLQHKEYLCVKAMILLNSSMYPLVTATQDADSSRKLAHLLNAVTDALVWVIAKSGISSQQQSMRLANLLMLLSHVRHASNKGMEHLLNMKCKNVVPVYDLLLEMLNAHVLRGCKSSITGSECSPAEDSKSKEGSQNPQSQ
Sequence of Luciferin 4-monooxygenase (P08659 whole entry): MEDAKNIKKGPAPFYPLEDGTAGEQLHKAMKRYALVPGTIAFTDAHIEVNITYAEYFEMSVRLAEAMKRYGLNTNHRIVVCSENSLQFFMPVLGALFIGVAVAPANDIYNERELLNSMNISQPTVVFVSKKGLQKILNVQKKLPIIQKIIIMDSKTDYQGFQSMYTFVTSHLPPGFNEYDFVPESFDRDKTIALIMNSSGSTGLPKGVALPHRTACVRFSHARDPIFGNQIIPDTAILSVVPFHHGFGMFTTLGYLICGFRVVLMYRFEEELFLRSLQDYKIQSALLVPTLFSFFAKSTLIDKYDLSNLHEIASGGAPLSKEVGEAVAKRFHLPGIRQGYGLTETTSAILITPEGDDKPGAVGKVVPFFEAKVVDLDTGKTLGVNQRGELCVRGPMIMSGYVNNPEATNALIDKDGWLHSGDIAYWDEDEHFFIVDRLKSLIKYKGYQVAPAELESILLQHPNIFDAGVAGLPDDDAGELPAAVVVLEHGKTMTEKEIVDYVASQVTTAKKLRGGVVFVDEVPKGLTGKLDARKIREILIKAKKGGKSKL
Sequence of Ion channel NompC (Q7T1G6 whole entry): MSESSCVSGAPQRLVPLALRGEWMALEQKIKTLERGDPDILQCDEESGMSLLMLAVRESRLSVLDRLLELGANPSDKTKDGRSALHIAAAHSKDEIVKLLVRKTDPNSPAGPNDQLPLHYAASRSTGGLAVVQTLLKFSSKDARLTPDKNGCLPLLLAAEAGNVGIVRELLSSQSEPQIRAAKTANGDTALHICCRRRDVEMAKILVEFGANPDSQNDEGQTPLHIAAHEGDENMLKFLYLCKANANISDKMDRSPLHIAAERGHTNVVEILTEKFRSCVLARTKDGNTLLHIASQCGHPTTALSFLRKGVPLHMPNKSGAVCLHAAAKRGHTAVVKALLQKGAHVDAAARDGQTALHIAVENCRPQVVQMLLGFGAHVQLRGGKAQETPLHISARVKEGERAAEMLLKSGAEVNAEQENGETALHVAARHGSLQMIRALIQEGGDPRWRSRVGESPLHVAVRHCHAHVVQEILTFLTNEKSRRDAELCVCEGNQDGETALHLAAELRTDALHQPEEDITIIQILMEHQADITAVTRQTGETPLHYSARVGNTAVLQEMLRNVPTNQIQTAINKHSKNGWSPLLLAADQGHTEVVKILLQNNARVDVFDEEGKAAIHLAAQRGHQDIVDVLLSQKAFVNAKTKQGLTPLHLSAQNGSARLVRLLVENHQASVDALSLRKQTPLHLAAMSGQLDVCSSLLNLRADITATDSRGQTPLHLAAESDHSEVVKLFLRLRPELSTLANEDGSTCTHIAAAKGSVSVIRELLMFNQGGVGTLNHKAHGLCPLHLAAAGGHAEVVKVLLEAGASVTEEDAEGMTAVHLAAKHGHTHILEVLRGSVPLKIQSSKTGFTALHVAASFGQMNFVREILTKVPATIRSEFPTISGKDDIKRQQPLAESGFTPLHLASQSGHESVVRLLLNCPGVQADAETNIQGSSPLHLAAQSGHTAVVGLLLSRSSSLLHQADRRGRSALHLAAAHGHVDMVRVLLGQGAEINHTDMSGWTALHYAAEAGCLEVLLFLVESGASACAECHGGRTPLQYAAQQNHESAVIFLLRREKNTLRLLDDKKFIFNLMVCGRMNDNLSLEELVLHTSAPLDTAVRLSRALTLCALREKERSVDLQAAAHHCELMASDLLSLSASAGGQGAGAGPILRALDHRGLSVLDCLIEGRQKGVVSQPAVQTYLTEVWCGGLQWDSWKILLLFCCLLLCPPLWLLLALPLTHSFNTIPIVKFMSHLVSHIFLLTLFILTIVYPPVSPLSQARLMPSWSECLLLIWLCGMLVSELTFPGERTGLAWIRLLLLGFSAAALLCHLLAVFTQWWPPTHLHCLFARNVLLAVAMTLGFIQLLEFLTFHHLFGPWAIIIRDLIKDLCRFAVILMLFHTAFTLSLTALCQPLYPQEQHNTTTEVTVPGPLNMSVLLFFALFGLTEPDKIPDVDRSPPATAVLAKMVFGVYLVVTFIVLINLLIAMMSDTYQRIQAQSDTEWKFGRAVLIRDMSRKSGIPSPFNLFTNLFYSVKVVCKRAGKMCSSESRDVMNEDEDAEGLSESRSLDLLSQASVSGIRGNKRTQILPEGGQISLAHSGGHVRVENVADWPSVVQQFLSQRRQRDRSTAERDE
Sequence of Mucolipin-3 (Q8TDD5 whole entry): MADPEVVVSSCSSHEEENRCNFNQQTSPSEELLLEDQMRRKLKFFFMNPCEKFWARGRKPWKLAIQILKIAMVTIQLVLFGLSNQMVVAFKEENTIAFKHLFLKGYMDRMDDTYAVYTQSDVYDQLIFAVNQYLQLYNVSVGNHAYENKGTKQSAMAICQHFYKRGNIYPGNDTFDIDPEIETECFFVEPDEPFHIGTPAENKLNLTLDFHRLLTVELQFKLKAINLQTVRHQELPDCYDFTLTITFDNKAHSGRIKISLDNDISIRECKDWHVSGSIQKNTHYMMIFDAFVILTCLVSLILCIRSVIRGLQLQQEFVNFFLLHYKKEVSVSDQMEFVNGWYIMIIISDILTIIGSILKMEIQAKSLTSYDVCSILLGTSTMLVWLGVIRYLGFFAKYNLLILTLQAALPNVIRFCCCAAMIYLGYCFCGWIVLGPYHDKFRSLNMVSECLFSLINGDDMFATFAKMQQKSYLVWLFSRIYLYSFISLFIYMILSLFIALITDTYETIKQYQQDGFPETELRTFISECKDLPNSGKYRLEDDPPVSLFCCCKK
Sequence of Estrogen receptor (P03372 whole entry): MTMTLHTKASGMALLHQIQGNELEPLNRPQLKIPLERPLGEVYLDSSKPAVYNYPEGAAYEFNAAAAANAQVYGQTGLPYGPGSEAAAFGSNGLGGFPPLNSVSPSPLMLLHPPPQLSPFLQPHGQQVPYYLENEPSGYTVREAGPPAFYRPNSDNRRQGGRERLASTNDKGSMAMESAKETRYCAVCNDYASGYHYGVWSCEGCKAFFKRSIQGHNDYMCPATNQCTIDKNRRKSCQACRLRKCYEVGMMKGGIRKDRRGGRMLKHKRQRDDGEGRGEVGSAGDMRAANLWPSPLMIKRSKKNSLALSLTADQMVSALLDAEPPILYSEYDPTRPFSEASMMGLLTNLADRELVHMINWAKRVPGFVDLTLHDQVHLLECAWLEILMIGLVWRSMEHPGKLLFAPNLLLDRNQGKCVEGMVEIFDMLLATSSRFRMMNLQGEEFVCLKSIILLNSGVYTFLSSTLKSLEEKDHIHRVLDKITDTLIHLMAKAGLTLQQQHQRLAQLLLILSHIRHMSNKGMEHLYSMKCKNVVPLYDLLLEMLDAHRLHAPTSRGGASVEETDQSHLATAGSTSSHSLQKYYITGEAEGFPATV
Sequence of Beta-lactamase (Salmonella choleraesuis (strain SC-B67), UniProt Q5J463) (Q5J463 whole entry): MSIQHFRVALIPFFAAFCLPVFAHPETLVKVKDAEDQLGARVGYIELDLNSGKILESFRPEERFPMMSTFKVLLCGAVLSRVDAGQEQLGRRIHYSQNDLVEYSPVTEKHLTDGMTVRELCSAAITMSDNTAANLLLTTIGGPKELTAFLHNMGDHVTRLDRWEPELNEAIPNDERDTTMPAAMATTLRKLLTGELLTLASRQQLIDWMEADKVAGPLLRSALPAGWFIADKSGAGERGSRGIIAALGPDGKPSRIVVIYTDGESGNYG
Sequence of Beta-lactamase (Pseudomonas aeruginosa, UniProt Q79MP6) (Q79MP6 whole entry): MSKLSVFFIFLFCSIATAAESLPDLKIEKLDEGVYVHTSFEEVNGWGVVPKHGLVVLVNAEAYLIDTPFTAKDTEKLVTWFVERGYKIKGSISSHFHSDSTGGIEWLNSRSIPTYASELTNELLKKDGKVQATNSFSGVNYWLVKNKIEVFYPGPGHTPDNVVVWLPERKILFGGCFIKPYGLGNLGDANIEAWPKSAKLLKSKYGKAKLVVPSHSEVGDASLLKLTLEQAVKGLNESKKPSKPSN

Compound: CC12CCC(=O)N1C(C(=O)OCC(=O)Nc1sccc1C#N)CS2 (centres undefined)
- IC50 (Estrogen receptor beta [1]): 0.118 µM (not active)
- IC50 (Estrogen receptor beta [2]): 14.4 µM (active)

Compound: O=C(c1ccc([N+](=O)[O-])cc1)N(Cc1ccc(Cl)cc1Cl)N1C(=O)CCCC1=O
- EC50 [3]: > 53 µM (inactive)
- EC50 (Ion channel NompC): > 29.9 µM (not active)
- EC50 (Mucolipin-3): > 29.9 µM (not active)

Compound: O=c1c(Cl)c(N2CCCCC2)cnn1-c1nc2ccccc2[nH]1
- EC50 [4]: 2.55 µM (active)
- EC50 [5]: 34.4 µM (active)
- EC50 [6]: 2.68 µM (active)
- EC50 (HT-1080): > 50 µM (not active)
- EC50 [7]: 4.25 µM (active)

Compound: Nc1c(C(=O)NCc2ccc3c(c2)OCO3)c2nc3ccccc3nc2n1CCCN1CCOCC1
- EC50 [8]: 13.2 µM (active)
- EC50 [9]: 20.6 µM (active)
- EC50 [10]: 9.92 µM (active)
- IC50 [11]: 76.8 µM (active)
- EC50 [12]: 20.2 µM (active)

Compound: CC(C)N(C(=O)c1ccc2nc(-c3ccccc3)c(-c3ccccc3)nc2c1)C(C)C
- EC50 (Ion channel NompC): > 29.9 µM (not active)
- EC50 (Mucolipin-3): 1.52 µM (active)

Compound: COc1ccc(-c2nnc(SC(=O)N3c4ccccc4Sc4ccccc43)o2)cc1
- EC50 [8]: 8.96 µM (active)
- EC50 [10]: 12.5 µM (active)
- AC50 [13]: 1.79 µM (active)
- EC50 (Protein RecA): 0.451 µM (active)

Compound: C/N=C1\SC(CC(=O)Nc2ccc(C(C)=O)cc2)C(=O)N1C (centres undefined)
- IC50 (Estrogen receptor): > 50 µM (not active)
- IC50 (Estrogen receptor beta [2]): > 50 µM (not active)

Compound: CCN(CC)c1ccc2cc(-c3nc4ccccc4[nH]3)c(=O)oc2c1
- IC50 [14]: 2.32 µM (active)
- IC50 (Beta-lactamase [15]): 0.709 µM (active)
- IC50 (Beta-lactamase [16]): 3.24 µM (active)
- EC50 [17]: 0.434 µM (active)
- EC50 (HT-1080): > 50 µM (not active)
- EC50 [7]: < 0.2 µM (active)
